# Source: patent publication US4608390A, “Lipoxygenase inhibiting compounds” (Abbott Laboratories, priority 1985, dated 1986)
# Key:
# Format in all cases: biochemical
# 5-lipoxygenase = target: T1, 5-lipoxygenase (Rattus norvegicus, UniProt P12527); experiment: 5-Lipoxygenase IC50 determination (20,000×G supernatant of homogenized RBL-1 cells, radiolabeled arachidonic acid); conditions: RBL-1 cell 20,000×G supernatant
# T1 construct: 20,000×G supernatant from 7.5×10^6 homogenized RBL-1 cells; endogenous in cells; host or cells: RBL-1 cells (20,000xG supernatant of homogenate)
# T1 sequence (P12527 1-673): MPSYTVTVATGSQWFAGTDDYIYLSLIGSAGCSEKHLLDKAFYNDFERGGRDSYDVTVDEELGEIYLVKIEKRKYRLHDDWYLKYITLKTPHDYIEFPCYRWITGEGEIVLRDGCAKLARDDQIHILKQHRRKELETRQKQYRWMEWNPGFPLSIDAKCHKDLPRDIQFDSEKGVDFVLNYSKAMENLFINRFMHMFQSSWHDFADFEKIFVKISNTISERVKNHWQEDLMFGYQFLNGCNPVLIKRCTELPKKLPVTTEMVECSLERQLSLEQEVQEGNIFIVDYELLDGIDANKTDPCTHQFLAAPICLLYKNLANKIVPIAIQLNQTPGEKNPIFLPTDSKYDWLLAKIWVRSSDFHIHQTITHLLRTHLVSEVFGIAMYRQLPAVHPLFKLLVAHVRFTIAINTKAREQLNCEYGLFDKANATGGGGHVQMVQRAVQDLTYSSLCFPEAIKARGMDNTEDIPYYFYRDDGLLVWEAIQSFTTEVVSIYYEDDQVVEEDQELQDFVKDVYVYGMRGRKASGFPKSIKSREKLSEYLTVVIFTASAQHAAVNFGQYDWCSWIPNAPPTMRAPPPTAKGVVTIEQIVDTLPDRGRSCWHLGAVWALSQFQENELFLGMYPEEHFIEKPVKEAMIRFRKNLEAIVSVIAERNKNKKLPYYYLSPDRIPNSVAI
# Description: Reactions were initiated by the addition of radiolabeled arachidonic acid and terminated by acidification and ether extraction. Reaction products were separated from nonconverted substrate by thin layer chromatography and measured by liquid scintillatiton spectroscopy. Inhibition of 5-lipoxygenase activity was calculated as the ratio of the amounts of product formed in the presence and absence of inhibitor. […]
# 15-lipoxygenase = target: T2, 15-lipoxygenase (Glycine max, UniProt P08170); experiment: 15-lipoxygenase inhibition (15-lipoxygenase obtained from soybean); conditions: for inhibition at 10 µM: read-out: % Inhibition at Indicated Concentration, 15-lipoxygenase, 10 μM; for inhibition at 100 µM: read-out: % Inhibition at Indicated Concentration, 15-lipoxygenase, 100 μM
# T2 construct: 15-lipoxygenase obtained from soybean; from tissue; host or cells: soybean
# T2 sequence (P08170 1-839): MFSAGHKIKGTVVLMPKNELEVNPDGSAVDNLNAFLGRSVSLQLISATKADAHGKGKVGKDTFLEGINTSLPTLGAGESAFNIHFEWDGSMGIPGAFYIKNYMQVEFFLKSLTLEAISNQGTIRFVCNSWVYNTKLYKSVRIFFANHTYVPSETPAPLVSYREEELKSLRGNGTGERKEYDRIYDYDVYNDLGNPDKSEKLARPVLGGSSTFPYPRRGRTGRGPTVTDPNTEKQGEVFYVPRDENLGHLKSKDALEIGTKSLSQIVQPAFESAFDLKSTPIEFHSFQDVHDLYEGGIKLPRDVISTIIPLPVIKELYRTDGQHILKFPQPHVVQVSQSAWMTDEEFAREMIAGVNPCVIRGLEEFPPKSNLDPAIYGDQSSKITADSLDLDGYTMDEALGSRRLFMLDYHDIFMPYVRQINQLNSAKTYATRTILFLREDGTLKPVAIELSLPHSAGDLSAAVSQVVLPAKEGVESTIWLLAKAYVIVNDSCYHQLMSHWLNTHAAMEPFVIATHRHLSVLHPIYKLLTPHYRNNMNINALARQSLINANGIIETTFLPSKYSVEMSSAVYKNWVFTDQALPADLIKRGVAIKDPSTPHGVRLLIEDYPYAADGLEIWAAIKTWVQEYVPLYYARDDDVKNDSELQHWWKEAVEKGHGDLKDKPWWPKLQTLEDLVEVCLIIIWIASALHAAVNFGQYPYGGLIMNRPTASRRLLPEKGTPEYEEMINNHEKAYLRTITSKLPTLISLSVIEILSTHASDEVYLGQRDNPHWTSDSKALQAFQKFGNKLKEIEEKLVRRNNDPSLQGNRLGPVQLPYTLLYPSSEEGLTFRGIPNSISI
# Description: (§1) The compounds of this invention are potent inhibitors of 5-, 12- and 15-lipoxygenase. An assay to determine 5-lipoxygenase activity was performed in incubations containing various concentrations of the test compound and the 20,000×G supernatant from 7.5×10^6 homogenized RBL-1 cells. Reactions were initiated by the addition of radiolabeled arachidonic acid and terminated by acidification and ether extraction. Reaction products were separated from nonconverted substrate by thin layer chromatography and measured by liquid scintillatiton spectroscopy. Inhibition of 5-lipoxygenase activity was calculated as the ratio of the amounts of product formed in the presence and absence of inhibitor.
# (§2) The inhibitory activities of the compounds of this invention against 12- and 15-lipoxygenase can be determined in the foregoing assay in which 12-lipoxygenase obtained from human platelets, or 15-lipoxygenase obtained from soybean, is substituted for the 5-lipoxygenase-containing cell supernatant fraction.
# 12-lipoxygenase = target: T3, 12-lipoxygenase (Homo sapiens, UniProt P18054); experiment: 12-lipoxygenase inhibition (12-lipoxygenase obtained from human platelets); conditions: for inhibition at 10 µM: read-out: % Inhibition at Indicated Concentration, 12-lipoxygenase, 10 μM; for inhibition at 100 µM: read-out: % Inhibition at Indicated Concentration, 12-lipoxygenase, 100 μM
# T3 construct: 12-lipoxygenase obtained from human platelets; from tissue; host or cells: human platelets
# T3 sequence (P18054 1-663): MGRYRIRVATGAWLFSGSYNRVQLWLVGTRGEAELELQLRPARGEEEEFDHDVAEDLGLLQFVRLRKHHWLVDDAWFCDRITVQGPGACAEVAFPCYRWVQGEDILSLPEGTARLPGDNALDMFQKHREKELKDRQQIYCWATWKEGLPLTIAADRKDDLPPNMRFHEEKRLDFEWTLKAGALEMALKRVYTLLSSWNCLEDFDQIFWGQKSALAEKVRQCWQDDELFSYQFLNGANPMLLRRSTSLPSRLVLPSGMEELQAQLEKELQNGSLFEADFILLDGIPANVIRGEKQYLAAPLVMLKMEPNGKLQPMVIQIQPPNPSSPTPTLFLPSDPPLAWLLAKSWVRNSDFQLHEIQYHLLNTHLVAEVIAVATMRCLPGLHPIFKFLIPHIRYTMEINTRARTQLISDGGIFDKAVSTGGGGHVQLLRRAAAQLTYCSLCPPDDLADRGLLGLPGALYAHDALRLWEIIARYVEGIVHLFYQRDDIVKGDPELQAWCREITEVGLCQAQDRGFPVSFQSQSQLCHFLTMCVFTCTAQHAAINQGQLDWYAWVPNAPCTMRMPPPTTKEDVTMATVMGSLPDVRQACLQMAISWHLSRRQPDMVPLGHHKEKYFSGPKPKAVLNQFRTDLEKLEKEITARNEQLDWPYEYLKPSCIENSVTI
# Description: as §1, §2
SMILES,IC50 (5-lipoxygenase) [nM],inhibition at 10 µM (15-lipoxygenase) [%],inhibition at 100 µM (15-lipoxygenase) [%],inhibition at 10 µM (12-lipoxygenase) [%],inhibition at 100 µM (12-lipoxygenase) [%]
"O=C(CCC/C=C\c1ccc2ccccc2c1)NO [Example 17, Z-6-(2-naphthyl)hex-5-enohydroxamic acid]",1600,–,–,–,–
"Cc1ccc2ccc(CCC(=O)NO)cc2c1 [Example 19, 3-(7-methyl-2-napthalene)propiohydroxamic acid]",2900,19,33,82,99
"O=C(C=Cc1ccc2ccccc2c1)N(O)C1CCCCC1 [Example 4, N-cyclohexyl 3-(2-naphthyl)acrylohydroxamic acid]",260,43,83,66,–
"CC(=CC(=O)N(C)O)c1ccc2ccccc2c1 [Example 12, 3,N-dimethyl-3-(2-naphthyl)acrylohydroxamic acid]",–,37,88,–,–
"CN(O)C(=O)C(=Cc1ccc2ccccc2c1)c1ccc(Cl)cc1 [Example 10, N-methyl-3-(2-naphthyl)-2-(4-chlorophenyl)acrylohydroxamic acid]",–,–,–,98,–
"O=C(C=Cc1ccc2ccccc2c1)N(O)c1ccccc1 [Example 5, N-phenyl 3-(2-naphthyl)acrylohydroxamic acid]",200,22,30,82,–
"CN(O)C(=O)C=Cc1ccc([N+](=O)[O-])c2ccccc12 [Example 16, N-methyl-3-(4-nitro-1-naphthyl)acrylohydroxamic acid]",130,–,–,–,–
"O=C(CCc1ccc2ccccc2c1)NO [Example 18, 3-(2-naphthyl)propiohydroxamic acid]",9700,12,31,–,–
"CN(O)C(=O)C=Cc1ccc2ccccc2c1 [Example 2, N-methyl 3-(2-naphthyl)acrylohydroxamic acid]",260,43,83,88,–
"CN(O)C(=O)C=Cc1cc2ccccc2cc1[N+](=O)[O-] [Example 13, N-methyl-3-(3-nitro-2-naphthyl)acrylohydroxamic acid]",–,19,49,81,97
"CCCCCC=Cc1ccc2ccc(C=CC(=O)N(C)O)cc2c1 [Example 14, N-methyl-3-[7-(1-heptenyl)-2-naphthyl]acrylohydroxamic acid]",510,59,65,93,98
"CN(O)C(=O)C(=Cc1ccc2ccccc2c1)c1ccccc1 [Example 8, N-methyl-3-(2-naphthyl)-2-phenyl acrylohydroxamic acid]",–,38,62,–,–
"CC(=Cc1ccc2ccccc2c1)C(=O)N(C)O [Example 7, 2,N-dimethyl-3-(2-naphthyl)acrylohydroxamic acid]",–,37,88,–,–
"CC(C)N(O)C(=O)C=Cc1ccc2ccccc2c1 [Example 3, N-isopropyl 3-(2-naphthyl)acrylohydroxamic acid]",150,31,63,75,84
"O=C(C=Cc1ccc2ccccc2c1)NO [Example 1, 3-(2-naphthyl)acrylohydroxamic acid]",–,2,19,92,100
"CC(=Cc1ccc2ccccc2c1)C(=O)NO [Example 6, 2-methyl-3-(2-naphthyl)acrylohydroxamic acid]",–,45,100,–,–
"CN(O)C(=O)C=Cc1cccc2ccccc12 [Example 15, N-methyl-3-(1-naphthyl)acrylohydroxamic acid]",200,29,88,82,100
